Laboratory results taken from ChEMBL document CHEMBL1124261 (J Med Chem, 1988).
pIC50, pKi: −log10 of the molar value.

Tests used:
[1] = target: T1, Folylpolyglutamate synthase, mitochondrial (Homo sapiens, UniProt Q05932); assay: Inhibitory constant against purified Folyl-polyglutamate synthase obtained from human
T1 sequence (Q05932 whole entry): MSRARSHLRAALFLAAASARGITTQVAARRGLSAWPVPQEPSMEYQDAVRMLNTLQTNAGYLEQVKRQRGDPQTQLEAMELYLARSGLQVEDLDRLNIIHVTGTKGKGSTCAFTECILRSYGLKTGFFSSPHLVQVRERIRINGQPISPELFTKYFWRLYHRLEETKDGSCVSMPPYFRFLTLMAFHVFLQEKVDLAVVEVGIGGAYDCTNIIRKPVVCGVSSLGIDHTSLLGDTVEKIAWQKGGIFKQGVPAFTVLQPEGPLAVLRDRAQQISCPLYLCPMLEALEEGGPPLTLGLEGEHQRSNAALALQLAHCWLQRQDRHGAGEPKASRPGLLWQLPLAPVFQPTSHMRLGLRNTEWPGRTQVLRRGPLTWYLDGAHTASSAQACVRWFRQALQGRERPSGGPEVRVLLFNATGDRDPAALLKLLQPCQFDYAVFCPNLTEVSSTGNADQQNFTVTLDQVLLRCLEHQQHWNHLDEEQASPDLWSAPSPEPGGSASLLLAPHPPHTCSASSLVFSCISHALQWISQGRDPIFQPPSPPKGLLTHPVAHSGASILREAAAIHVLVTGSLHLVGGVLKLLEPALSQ

[2] = target: T2, Folylpolyglutamate synthase, mitochondrial (Mus musculus, UniProt P48760); assay: Inhibitory constant against purified Folyl-polyglutamate synthase obtained from mouse
T2 sequence (P48760 whole entry): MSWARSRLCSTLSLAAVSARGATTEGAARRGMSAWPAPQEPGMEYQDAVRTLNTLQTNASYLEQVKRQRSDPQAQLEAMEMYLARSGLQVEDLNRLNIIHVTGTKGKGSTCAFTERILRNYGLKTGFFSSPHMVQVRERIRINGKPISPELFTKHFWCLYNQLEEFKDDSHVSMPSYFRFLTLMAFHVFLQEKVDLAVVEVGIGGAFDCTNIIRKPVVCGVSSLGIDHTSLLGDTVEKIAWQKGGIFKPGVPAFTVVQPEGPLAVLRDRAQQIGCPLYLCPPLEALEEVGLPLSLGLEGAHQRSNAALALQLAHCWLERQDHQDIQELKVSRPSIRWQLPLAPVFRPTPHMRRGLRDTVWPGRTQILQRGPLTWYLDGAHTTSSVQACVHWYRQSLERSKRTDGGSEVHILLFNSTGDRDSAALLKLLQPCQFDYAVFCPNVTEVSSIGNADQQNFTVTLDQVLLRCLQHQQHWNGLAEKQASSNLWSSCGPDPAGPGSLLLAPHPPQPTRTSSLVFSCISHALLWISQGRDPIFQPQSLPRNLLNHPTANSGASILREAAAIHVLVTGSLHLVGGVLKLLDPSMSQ

Mus musculus = species on record: Mus musculus; assay: (§1) Tested for inhibition against purified Folyl-polyglutamate synthase from mouse liver; conditions: concentration not given here
[3] = (§2) Inhibitory constant against purified Folyl-polyglutamate synthase from mouse liver; type: functional
L1210 ( R81) = assay: Tested for cell-growth inhibition against mouse leukemic L1210/R81 cells; type: functional, cell-based
L1210 [4] = assay: Tested for cell-growth inhibition against mouse leukemic L1210 cells; type: functional, cell-based
Dihydrofolate reductase = target: T3, Dihydrofolate reductase (Mus musculus, UniProt P00375); assay: biochemical
T3 sequence (P00375 whole entry): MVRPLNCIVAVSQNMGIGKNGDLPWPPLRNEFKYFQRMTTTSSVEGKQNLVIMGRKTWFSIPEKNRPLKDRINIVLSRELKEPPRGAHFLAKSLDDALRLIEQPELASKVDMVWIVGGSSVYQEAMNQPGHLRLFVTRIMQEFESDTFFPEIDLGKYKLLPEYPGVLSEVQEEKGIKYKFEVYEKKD
Description: Tested for inhibition against purified Dihydrofolate reductase from L1210 murine leukemia cells

CCRF-CEM [5] = assay: Tested for cell-growth inhibition against human leukemic lymphoblast CEM cells; type: functional, cell-based
CCRF-CEM [6] = assay: Tested for cell-growth inhibition against human leukemic lymphoblast CEM/MTX cells; type: functional, cell-based
[7] = target: T2, Folylpolyglutamate synthase, mitochondrial; assay: as §2
[8] = target: T4, Folylpolyglutamate synthase, mitochondrial (Mus musculus) (UniProt P48760); assay: as §1; conditions: concentration not given here
T4 sequence (whole entry): T2 sequence (P48760 whole entry)

L1210 [9] = assay: Mean change in weight of mice infected with L1210 leukemia after 7 days after an intraperitoneal dose of 80 mg/kg; type: functional, Mus musculus
L1210 [10] = assay: Range for the survival of mice infected with L1210 leukemia after an intraperitoneal dose of 20 mg/kg for 9 days; Range is 14-16; type: functional, Mus musculus
L1210 [11] = assay: Range for the survival of mice infected with L1210 leukemia after an intraperitoneal dose of 40 mg/kg for 9 days; Range is 15-22; type: functional, Mus musculus
L1210 [12] = assay: Range for the survival of mice infected with L1210 leukemia after an intraperitoneal dose of 60 mg/kg for 9 days; Range is 17-19; type: functional, Mus musculus
L1210 [13] = assay: Increase in life span of mice infected with L1210 leukemia after an intraperitoneal dose of 20 mg/kg for 9 days; type: functional; conditions: Mus musculus, L1210, ip, 216 h
L1210 [14] = assay: Increase in life span of mice infected with L1210 leukemia after an intraperitoneal dose of 40 mg/kg for 9 days; type: functional; conditions: Mus musculus, L1210, ip, 216 h
L1210 [15] = assay: Increase in life span of mice infected with L1210 leukemia after an intraperitoneal dose of 60 mg/kg for 9 days; type: functional; conditions: Mus musculus, L1210, ip, 216 h
L1210 [16] = assay: Increase in life span of mice infected with L1210 leukemia after an intraperitoneal dose of 80 mg/kg for 9 days; type: functional; conditions: Mus musculus, L1210, ip, 216 h
L1210 [17] = assay: Mean change in weight of mice infected with L1210 leukemia after 7 days after an intraperitoneal dose of 20 mg/kg; type: functional, Mus musculus
L1210 [18] = assay: Mean change in weight of mice infected with L1210 leukemia after 7 days after an intraperitoneal dose of 40 mg/kg; type: functional, Mus musculus
L1210 [19] = assay: Mean change in weight of mice infected with L1210 leukemia after 7 days after an intraperitoneal dose of 60 mg/kg; type: functional, Mus musculus
L1210 [20] = assay: Mean survival of mice infected with L1210 leukemia after an intraperitoneal dose of 40 mg/kg for 9 days; type: functional, Mus musculus
L1210 [21] = assay: Mean survival of mice infected with L1210 leukemia after an intraperitoneal dose of 60 mg/kg for 9 days; type: functional, Mus musculus
L1210 [22] = assay: Range for the survival of mice infected with L1210 leukemia after an intraperitoneal dose of 80 mg/kg for 9 days; Range is 9-16; type: functional, Mus musculus
L1210 [23] = assay: Mean survival of mice infected with L1210 leukemia after an intraperitoneal dose of 80 mg/kg for 9 days; type: functional, Mus musculus
L1210 [24] = assay: Mean survival of mice infected with L1210 leukemia after an intraperitoneal dose of 20 mg/kg for 9 days; type: functional, Mus musculus
L1210 [25] = assay: Range for the survival of mice infected with L1210 leukemia after an intraperitoneal dose of 20 mg/kg for 9 days; Range is 15-16; type: functional, Mus musculus
L1210 [26] = assay: Range for the survival of mice infected with L1210 leukemia after an intraperitoneal dose of 40 mg/kg for 9 days; Range is 13-23; type: functional, Mus musculus
L1210 [27] = assay: Range for the survival of mice infected with L1210 leukemia after an intraperitoneal dose of 60 mg/kg for 9 days; Range is 10-18; type: functional, Mus musculus
L1210 [28] = assay: Range for the survival of mice infected with L1210 leukemia after an intraperitoneal dose of 80 mg/kg for 9 days; Range is 9-23; type: functional, Mus musculus

Compound	inhibition (Mus musculus)	pIC50 (L1210 ( R81))	pIC50 (L1210 [4])	pIC50 (Dihydrofolate reductase)	pIC50 (CCRF-CEM [5])	pIC50 (CCRF-CEM [6])	Weight change (L1210 [9])	ILS at 20 mg/kg (L1210 [13])	ILS at 40 mg/kg (L1210 [14])	ILS at 60 mg/kg (L1210 [15])	ILS at 80 mg/kg (L1210 [16])	Weight change (L1210 [17])	Weight change (L1210 [18])	Weight change (L1210 [19])	Survival (L1210 [20])	Survival (L1210 [21])	Survival (L1210 [23])	Survival (L1210 [24])	also measured
NCCC[C@H](NC(=O)c1ccc(NCc2cnc3nc(N)nc(N)c3n2)cc1)C(=O)O																			pKi [1]: 6.52; pKi [2]: 6.52
Nc1nc(N)c2nc(CNc3ccc(C(=O)NC(CCCCCCCCCC(=O)O)C(=O)O)cc3)cnc2n1 (configuration not stated)	90%	3.96	9.19	7.09															pKi [3]: 4.62
CN(Cc1cnc2nc(N)nc(N)c2n1)c1ccc(C(=O)NC(CCCCCCC(=O)O)C(=O)O)cc1 (configuration not stated)		4.17	8.92	7.64	6.82	5.24	-12%	68%	93%	105%	43%	4%	-1%	4%	17 days	18 days	12.6 days	14.8 days	pKi [7]: 3.49; inhibition [8]: 47%; Range (L1210 [10]): 14 days; Range (L1210 [11]): 15 days; Range (L1210 [12]): 17 days; Range (L1210 [22]): 9 days
CN(Cc1cnc2nc(N)nc(N)c2n1)c1ccc(C(=O)NC(CCCCCCCCC(=O)O)C(=O)O)cc1 (configuration not stated)	49%	4.11	8.51	7.54	7.25	5.66	-5%	73%	92%	70%	73%	5%	2%	4%	16.9 days	15 days	15.2 days	15.2 days	Range (L1210 [25]): 15 days; Range (L1210 [26]): 13 days; Range (L1210 [27]): 10 days; Range (L1210 [28]): 9 days
